The results in this text go back to patent publication US5756423A, “Method of controlling plants by inhibition of farnesyl pyrophosphate synthase” (Zeneca Limited, priority 1997, dated 1998).

As a reminder, the IC50 is the concentration that inhibits the measured activity by half. A word on the pIC50: it is the negative decadic logarithm of the IC50, by convention in mol/L.

pIC50: −log10 of the molar value. Read-outs that look alike come from different tables or passages of the source.

For experiment [1], the system named is barnyard grass (Enchinochloa crusgalli) (ECHCG). Briefly: post-emergent herbicidal test, barnyard grass. Type of experiment: in vivo. The note with it: Echinochloa crus-galli, post-emergence, read-out: ECHCG percent control. From the text:
(§1) Seeds of several different weed species were planted in sandy loam soil containing only trace organic matter. Propagules were sown in individuals rows using one species per row across the width of an aluminum flat (19.5×9.5×6 cm). The grass weeds planted were green foxtail (Setaria viridis) ("SETVI"), wild oat (Avena fatua) ("AVEFA"), barnyard grass (Enchinochloa crusgalli) ("ECHCG"). Broadleaf weeds utilized were wild mustard (Brassica kaber), also known as Sinapis arvensis, ("SINAR"), velvetleaf (Abutilon theophrasti) ("ABUTH") and morningglory (Ipomoea spp.) ("IPOSS"). Additionally, yellow nutsedge (Cyperus esculentus) ("CYPES"), nutlets were sown. Seeding depths ranged from 1.0 to 1.5 cm and plant densities ranged from 3 to 25 plants per row depending on individual plant species.
(§2) The flats were placed into a greenhouse and watered overhead by sprinkling. The greenhouse environmental systems provided the plants with natural and artificial (via metal halide lamps) lighting to attain 14 hours of light per day. Day and night temperatures were maintained at 29° and 21° C. respectively. The plants were grown for 10 to 12 days (or to the appropriate growth stage) prior to compound application. Grasses were sprayed at a 3 to 4 leaf stage and broadleaves at a 1 to 2 leaf stage. Yellow nutsedge was 5 to 7 cm tall at application.
(§3) Solutions of the test compounds were prepared by weighing out 18.8 and 74.7 mg for 1 and 4 kg/ha applications respectively, of the test compound into a 60 ml wide-mouth bottle, then dissolving the compound in 14.0 ml of deionized water containing 0.5% v/v Tween 20' (polyoxyethylene sorbitan monolaurate emulsifier) as a surfactant. Additional solvents, not exceeding 2 ml (15% of spray volume), were used if needed to dissolve the compound.
(§4) The plants were sprayed inside an enclosed linear spray table with the nozzle set at 30.5 cm (12 inches) above the foliage.
(§5) Treated plants were then returned to a greenhouse and watered daily without wetting the foliage.
(§6) The degree of weed control was evaluated 17-21 days after application and recorded as percentage of control as compared to the growth of the same species in an untreated control flat of the same. Percent control is the total injury to the plants due to all factors including: inhibited emergence, stunting, malformation, chlorosis and other types of plant injury. The control ratings range from 0 to 100 percent, where 0% represents no effect with growth equal to the untreated control and where 100% represents complete kill.

For experiment [2], the system named is green foxtail (Setaria viridis) (SETVI). Nature of the experiment: post-emergent herbicidal test, green foxtail. It counts as in vivo. The note with it: Setaria viridis, post-emergence, read-out: SETVI percent control.
Description: as §1, §2, §3, §4, §5, §6

Experiment [3] relates to yellow nutsedge (Cyperus esculentus) (CYPES). Briefly: post-emergent herbicidal test, yellow nutsedge. Type of experiment: in vivo. To be noted: Cyperus, post-emergence, read-out: CYPES percent control.
Description: as §1, §2, §3, §4, §5, §6

Experiment [4] deals with velvetleaf (Abutilon theophrasti) (ABUTH). Nature of the experiment: post-emergent herbicidal test, velvetleaf. To be noted: Abutilon theophrasti, post-emergence, read-out: ABUTH percent control. Type of experiment: in vivo.
Description: as §1, §2, §3, §4, §5, §6

In experiment [5] the test system is wild mustard (Brassica kaber), also known as Sinapis arvensis (SINAR). Nature of the experiment: post-emergent herbicidal test, wild mustard. It counts as in vivo. To be noted: Brassica, post-emergence, read-out: SINAR percent control.
Description: as §1, §2, §3, §4, §5, §6

The subject of experiment [6] is morningglory (Ipomoea spp.) (IPOSS). Nature of the experiment: post-emergent herbicidal test, morningglory. It counts as in vivo. The note with it: Ipomoea, post-emergence, read-out: IPOSS percent control.
Description: as §1, §2, §3, §4, §5, §6

Experiment [7] deals with farnesyl pyrophosphate synthase in daffodil chromoplasts. Nature of the experiment: inhibition of farnesyl pyrophosphate synthase in daffodil chromoplasts (14C-isopentenyl pyrophosphate incorporation). It counts as biochemical, Narcissus pseudonarcissus. The note with it: for IC50: unit inferred, IC50 values in nM, read-out: IC50. Here is the method: The IC50 value may be determined as follows. Daffodil chromoplasts are diluted to a volume of 500 microliters in a buffer containing 0.5M sucrose, 3 mM MgCl2, 1 mM ethylenediaminetetraacetic acid, 20 mM N-tris[hydroxymethyl]methyl-2-aminoethanesulfonic acid, […] N-[2-hydroxyethyl]-piperazine-N'-[2-ethanesulfonic acid], 5 mM L-cysteine, 10 mM sodium fluoride, and 0.1% bovine serum albumin at pH 7.7. The inhibitor to be tested may be dissolved in water other suitable solvent and then added to the reaction mixture. The assay is started by the addition of ^14 C-labeled isopentenyl pyrophosphate (52 Ci/mol) to give a final concentration in the assay of about 3 micromolar. The mixture is incubated at 30° C. with gentle agitation for a period of about 30 min. The reaction may be stopped by the addition of 0.5 mL of saturated NaCl and 2 mL of n-butanol saturated with water. After thorough mixing, the turbid suspensions are centrifuged briefly to separate the layers, and 1 mL of the bright yellow upper butanol layer is added to 10 mL of a suitable scintillation fluid which gives a single phase. The butanol soluble radioactivity is then measured in a scintillation counter.
In addition, the problem of variable quenching differences among different experiments can be essentially eliminated by determining the incorporation of radioactivity relative to controls. Each set of experiments requires two control tubes identical to the test samples except that they contain no inhibitor. One of these is quenched immediately (TO sample) and one is quenched at the end of the normal incubation period (T100 sample).
For each concentration of inhibitor examined the % residual activity is determined from the formula [formula]
Tightly closed daffodil flowers (Narcissus pseudonarcissus) were allowed to open at room temperature. […] Coronae were placed in twice their weight of isolation buffer consisting of 67 mM potassium phosphate, 0.74M sucrose, 5 mM MgCl2, and 0.2% polyvinyl-pyrrolidone at pH 7.6 and were disrupted by 30 seconds of homogenization at high speed in a Waring-type blender. The mixture was filtered through several layers of cheesecloth and 2 layers of 100 micron nylon mesh, and the resulting filtrate was centrifuged at 1000×g for 10 minutes. The pellet was discarded and supernatant was centrifuged at 22,000×g for 20 minutes. […] This solution was centrifuged at 22,000×g for 20 minutes to give orange pellets which were suspended in a buffer of 100 mM tris(hydroxymethyl)aminomethane at pH 7.6 containing 5mM MgCl2 and 2 mM dithiothreitol (1 ml per 10 coronae). This solution was frozen in liquid nitrogen and then stored at -80° C.
Thawed daffodil chromoplasts (100-150 microliters) were diluted to a final volume of 500 microliters in a buffer containing 0.5M sucrose, 3 mM MgCl2, 1 mM ethylenediaminetetraacetic acid, 10 mM N-[2-hydroxyethyl]piperazine-N^1 -[2-ethanesulfonic acid], 5 mM L-cysteine, 10 mM sodium fluoride, and 0.1% bovine serum albumin at pH 7.7. The inhibitor to be tested was dissolved in water or other suitable solvent and was added to the reaction mixture. The assay was started by the addition of ^14 C-labeled isopentenyl pyrophosphate (52 Ci/mol) to give a final concentration in the assay of about 3 micromolar. The mixture was incubated at 30° C. with gentle agitation for a period of about 30 minutes. The reaction was stopped by the addition of 0.5 mL of saturated NaCl and 2 mL of n-butanol saturated with water. After thorough mixing, the turbid suspensions were centrifuged briefly to separate the layers, and 1 mL of the bright yellow upper butanol layer was added to 10 mL of a suitable scintillation fluid which gave a single phase. The butanol soluble radioactivity was then measured in a scintillation counter. Each set of experiments required two control tubes identical to the test samples except that they contain no inhibitor.

For experiment [8], the system named is wild oat (Avena fatua) (AVEFA). Briefly: post-emergent herbicidal test, wild oat. Type of experiment: in vivo. The note with it: Avena fatua, post-emergence, read-out: AVEFA percent control.
Description: as §1, §2, §3, §4, §5, §6

Setting [9] is: post-emergent, 1.0 kg/ha (*), 17-21 days after application.
[10] abbreviates: post-emergent, 4.0 kg/ha, 17-21 days after application.

As to `O=P(O)(O)C(CN[C@@H]1C[C@H]1c1ccccc1)P(=O)(O)O` (relative stereo) [Compound 63], the pest or weed control at 1000 g/ha in experiment [1] (setting [9]) was 5%; in experiment [2] (setting [9]), 10%; in experiment [3] (setting [9]), 0%; in experiment [4] (setting [9]), 20%; in experiment [5] (setting [9]) it was 10%; in experiment [6] (setting [9]), 5%. In experiment [8] (setting [9]), the pest or weed control at 1000 g/ha worked out at 0%. The IC50 in experiment [7] (Table I) and in experiment [7] (Table II) was 2090 nM throughout.

`O=P(O)(O)C(Cc1ccccn1)P(=O)(O)O` [2-(2,2-diphosphonic acid)ethylpyridine, reference compound]: in experiment [7] (prior-art compounds, daffodil chromoplasts, read-out: IC50 value), the pIC50 is 7.28.

For the molecule `O=P(O)(O)C(CN1CCCCC1)P(=O)(O)O` [Compound 1], the pest or weed control at 4000 g/ha in experiment [1] (setting [10]) turned out to be 100%; in experiment [2] (setting [10]), 100%; in experiment [3] (setting [10]), 20%; in experiment [4] (setting [10]), 70%; in experiment [5] (setting [10]) it was 100%; in experiment [6] (setting [10]) it was 100%. The pest or weed control at 4000 g/ha in experiment [8] (setting [10]) was found to be 100%. Also, the IC50 in experiment [7] (Table I) and in experiment [7] (Table II) was 32 nM each time.

Consider `O=P(O)(O)C(O)(C1CCCN1)P(=O)(O)O` (stereo not shown) [Compound 2], for which the pest or weed control at 4000 g/ha came to 0% in experiment [1] (setting [10]); 60% in experiment [2] (setting [10]); 5% in experiment [3] (setting [10]); 0% in experiment [4] (setting [10]); 90% in experiment [5] (setting [10]); 0% in experiment [6] (setting [10]). Also, the pest or weed control at 4000 g/ha in experiment [8] (setting [10]) amounted to 0%. Further, the IC50 in experiment [7] (Table I) and in experiment [7] (Table II) was 933 nM in each case.

For the molecule `CCCNCC(P(=O)(O)O)P(=O)(O)O` [Compound 3], the pest or weed control at 1000 g/ha in experiment [1] was found to be 100%; in experiment [2], 100%; in experiment [3] it was 30%; in experiment [4], 70%; in experiment [5] it was 100%; in experiment [6] it was 95%. The pest or weed control at 1000 g/ha in experiment [8] came to 100%. Besides, the IC50 in experiment [7] (Table I) and in experiment [7] (Table II) was 30 nM in each case.

For the molecule `O=P(O)(O)C(CN1CCCC1)P(=O)(O)O` [Compound 4], the pest or weed control at 1000 g/ha in experiment [1] (setting [9]) is 90%; in experiment [2] (setting [9]), 100%; in experiment [3] (setting [9]) it was 5%; in experiment [4] (setting [9]), 20%; in experiment [5] (setting [9]), 100%; in experiment [6] (setting [9]), 20%. Also, the pest or weed control at 1000 g/ha in experiment [8] (setting [9]) was determined as 60%. Moreover, in experiment [7] (Table II), the IC50 stood at 38 nM.

In the case of `O=P(O)(O)C(CNC1CCCCC1)P(=O)(O)O` [Compound 5], the pest or weed control at 4000 g/ha in experiment [1] (setting [10]) amounted to 98%; in experiment [2] (setting [10]), 98%; in experiment [3] (setting [10]), 10%; in experiment [4] (setting [10]) it was 60%; in experiment [5] (setting [10]) it was 100%; in experiment [6] (setting [10]), 60%. Further, the pest or weed control at 4000 g/ha in experiment [8] (setting [10]) came to 98%. Besides, the IC50 in experiment [7] (Table I) and in experiment [7] (Table II) was 425 nM throughout.

In the case of `CC(C)NCC(P(=O)(O)O)P(=O)(O)O` [Compound 6], the pest or weed control at 4000 g/ha in experiment [1] came to 60%; in experiment [2] it was 60%; in experiment [3] it was 25%; in experiment [4] it was 15%; in experiment [5], 100%; in experiment [6], 70%. In experiment [8], the pest or weed control at 4000 g/ha stood at 50%. In addition, the IC50 in experiment [7] (Table I) and in experiment [7] (Table II) was 89 nM each time.

With `O=P(O)(O)C(Cn1ccnc1)P(=O)(O)O` [Compound 64], the pest or weed control at 1000 g/ha in experiment [1] (setting [9]) came to 98%; in experiment [2] (setting [9]), 100%; in experiment [3] (setting [9]), 30%; in experiment [4] (setting [9]) it was 75%; in experiment [5] (setting [9]), 100%; in experiment [6] (setting [9]), 100%. Also, the pest or weed control at 1000 g/ha in experiment [8] (setting [9]) turned out to be 100%.
